Assay results as given in patent US6391280B1, “J chain polypeptide targeting molecule linked to an imaging agent” (Epicyte Pharmaceutical, Inc., priority 1997, dated 2002).
Marks after values point to notes of the source that are not given here.

assay: Molar Relaxivities 1/T1 of Paramagnetic Compounds; assay type: physicochemical; details: in water at 10.7 MHz, 37° C. (values marked *)

Relaxation rate, molar relaxivity 1/T1 | Compound
10.39* (mMs)^−1 | O=S(=O)([O-])c1ccc(-c2c3nc(c(-c4ccc(S(=O)(=O)[O-])cc4)c4ccc([n-]4)c(-c4ccc(S(=O)(=O)[O-])cc4)c4ccc([n-]4)c(-c4ccc(S(=O)(=O)[O-])cc4)c4nc2C=C4)C=C3)cc1.[Mn+3] [MnTPPS4]
5.05* (mMs)^−1 | O=C([O-])CN(CCN(CC(=O)[O-])CC(=O)O)CCN(CC(=O)[O-])CC(=O)O.[Gd+3] [GDDTP A]
9.32* (mMs)^−1 | [Cl][Mn][Cl] [MnCl2]
14.67* (mMs)^−1 | [Cl][Gd]([Cl])[Cl] [GdCl]
